Here are results for 17 compounds from patent US11866450B2, “Modulators of Cystic Fibrosis Transmembrane Conductance regulator, pharmaceutical compositions, methods of treatment, and process for making the modulators” (priority 2018, dated 2024).

The target of the experiment is CFTR-mediated chloride transport (Homo sapiens, UniProt P13569). Format: cell-based. Particulars: enteroid cells incubated with test compound 18-24 hours, acute 10 μM forskolin and 300 nM Compound III; for Max. Activity: % of chloride transport with 3 μM Compound A, 3 μM Compound II and 300 nM acute Compound III triple combination control. The method in brief:
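Membrane-potential fluorescence AUC over 15 min quantified CFTR chloride transport after acute forskolin (10 μM), IBMX (100 μM) and Compound III (300 nM) in chloride-free buffer. Human enteroid cells were pretreated with compound for 18–24 h; % Activity is relative to 3 μM Compound A + 3 μM Compound II + 300 nM Compound III.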

Molecules are shown by their SMILES. A value given as a limit tells only on which side of the number the result lay.

Chain of CFTR-mediated chloride transport (P13569 whole entry, looked up): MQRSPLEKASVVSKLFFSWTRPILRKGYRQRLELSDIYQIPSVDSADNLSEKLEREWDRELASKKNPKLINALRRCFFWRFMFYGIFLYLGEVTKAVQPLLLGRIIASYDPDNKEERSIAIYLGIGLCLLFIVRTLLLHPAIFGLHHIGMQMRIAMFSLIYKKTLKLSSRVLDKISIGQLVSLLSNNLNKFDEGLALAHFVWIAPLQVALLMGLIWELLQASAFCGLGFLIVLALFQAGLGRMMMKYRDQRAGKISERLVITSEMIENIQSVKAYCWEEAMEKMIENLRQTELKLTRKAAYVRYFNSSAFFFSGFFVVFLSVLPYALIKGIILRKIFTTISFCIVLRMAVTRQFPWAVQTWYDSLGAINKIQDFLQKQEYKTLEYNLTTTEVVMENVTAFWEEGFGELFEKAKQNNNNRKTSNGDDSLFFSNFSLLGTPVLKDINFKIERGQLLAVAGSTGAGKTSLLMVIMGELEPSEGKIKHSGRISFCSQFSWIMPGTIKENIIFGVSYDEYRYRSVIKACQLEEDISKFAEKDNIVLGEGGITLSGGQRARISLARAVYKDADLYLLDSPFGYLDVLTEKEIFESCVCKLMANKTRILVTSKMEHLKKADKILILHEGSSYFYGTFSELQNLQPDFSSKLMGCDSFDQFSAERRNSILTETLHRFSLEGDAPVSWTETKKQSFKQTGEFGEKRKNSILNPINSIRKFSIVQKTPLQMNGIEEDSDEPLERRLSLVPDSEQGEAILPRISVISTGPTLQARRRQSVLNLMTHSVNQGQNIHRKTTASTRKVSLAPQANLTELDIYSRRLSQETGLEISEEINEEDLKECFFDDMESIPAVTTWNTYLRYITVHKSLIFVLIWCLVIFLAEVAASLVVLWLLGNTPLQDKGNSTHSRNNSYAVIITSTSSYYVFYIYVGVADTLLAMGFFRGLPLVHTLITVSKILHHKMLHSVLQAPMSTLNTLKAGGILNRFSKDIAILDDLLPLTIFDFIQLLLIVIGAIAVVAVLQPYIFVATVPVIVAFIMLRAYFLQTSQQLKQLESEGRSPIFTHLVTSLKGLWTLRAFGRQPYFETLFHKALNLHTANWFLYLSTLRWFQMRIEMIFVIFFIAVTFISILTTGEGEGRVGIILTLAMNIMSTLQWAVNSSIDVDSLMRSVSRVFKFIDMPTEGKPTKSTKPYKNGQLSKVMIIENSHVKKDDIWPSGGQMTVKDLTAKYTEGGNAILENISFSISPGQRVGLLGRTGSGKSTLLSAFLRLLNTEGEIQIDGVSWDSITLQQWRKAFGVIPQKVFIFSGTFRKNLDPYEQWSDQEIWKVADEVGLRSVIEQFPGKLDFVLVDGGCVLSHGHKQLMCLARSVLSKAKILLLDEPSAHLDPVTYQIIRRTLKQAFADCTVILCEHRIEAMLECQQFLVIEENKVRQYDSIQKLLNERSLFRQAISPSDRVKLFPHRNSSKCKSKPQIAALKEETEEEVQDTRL

As a reminder, the EC50 is the concentration needed to bring the measured effect to its halfway point. On to `CC1(C)C[C@@H]2CN1c1nc(-n3ccc(OCCC4(C(F)(F)F)CC4)n3)ccc1C(=O)NS(=O)(=O)c1ccn(n1)CCO2` (single isomer, unassigned) [Compound 302, 20,20-Dimethyl-4-(3-{2-[1-(trifluoromethyl)cyclopropyl]ethoxy}-1H-pyrazol-1-yl)-17-oxa-10λ^6-thia-1,3,9,14,22-pentaazatetracyclo[16.2.1.111,14.02,7]docosa-2(7),3,5,11(22),12-pentaene-8,10,10-trione], for which the EC50 is more than 3000 nM and the “Max. Activity” value was “+ (+ is <30%)”.
The corresponding values for `CC1(C)C[C@@H]2CN1c1nc(-n3ccc(OCCC4C5(CC5)C45CC5)n3)ccc1C(=O)NS(=O)(=O)c1cccc(n1)NCC(F)(F)C2` (single isomer, unassigned) [Compound 304, 8-[3-(2-{dispiro[2.0.2.1]heptan-7-yl}ethoxy)-1H-pyrazol-1-yl]-16,16-difluoro-12,12-dimethyl-2λ^6-thia-3,9,11,18,23-pentaazatetracyclo[17.3.1.111,14.05,10]tetracosa-1(22),5,7,9,19(23),20-hexaene-2,2,4-trione] are less than 1000 nM and “+++ (+++ is >60%)”.
With `CC1(C)C[C@@H]2CN1c1nc(-n3ccc(OCCC4C5(CC5)C45CC5)n3)ccc1C(=O)NS(=O)(=O)c1cccc(n1)NCC(F)(F)C2` (single isomer, unassigned) [Compound 305, 8-[3-(2-{Dispiro[2.0.2.1]heptan-7-yl}ethoxy)-1H-pyrazol-1-yl]-16,16-difluoro-12,12-dimethyl-2λ^6-thia-3,9,11,18,23-pentaazatetracyclo[17.3.1.111,14.05,10]tetracosa-1(22),5,7,9,19(23),20-hexaene-2,2,4-trione], the EC50 is more than 3000 nM and the “Max. Activity” value is reported as “+ (+ is <30%)”.
Regarding `CC1(C)C[C@H]2C[C@@H](F)CNc3cccc(n3)S(=O)(=O)NC(=O)c3ccc(-n4ccc(OCCC5C6(CC6)C56CC6)n4)nc3N1C2` (single isomer, unassigned) [Compound 306, 8-[3-(2-{dispiro[2.0.2.1]heptan-7-yl}ethoxy)-1H-pyrazol-1-yl]-16-fluoro-12,12-dimethyl-2λ^6-thia-3,9,11,18,23-pentaazatetracyclo[17.3.1.111,14.05,10]tetracosa-1(22),5,7,9,19(23),20-hexaene-2,2,4-trione], the EC50 is less than 1000 nM and the “Max. Activity” value is “+++ (+++ is >60%)”.
As for `CC1(C)C[C@H]2C[C@@H](F)CNc3cccc(n3)S(=O)(=O)NC(=O)c3ccc(-n4ccc(OCCC5C6(CC6)C56CC6)n4)nc3N1C2` (single isomer, unassigned) [Compound 307, 8-[3-(2-{dispiro[2.0.2.1]heptan-7-yl}ethoxy)-1H-pyrazol-1-yl]-16-fluoro-12,12-dimethyl-2λ^6-thia-3,9,11,18,23-pentaazatetracyclo[17.3.1.111,14.05,10]tetracosa-1(22),5,7,9,19(23),20-hexaene-2,2,4-trione], the half-maximal effective concentration (EC50) was more than 3000 nM and the “Max. Activity” value is recorded as “+ (+ is <30%)”.
With `CC1(C)C[C@H]2C[C@@H](F)CNc3cccc(n3)S(=O)(=O)NC(=O)c3ccc(-n4ccc(OCCC5C6(CC6)C56CC6)n4)nc3N1C2` (single isomer, unassigned) [Compound 308, 8-[3-(2-{dispiro[2.0.2.1]heptan-7-yl}ethoxy)-1H-pyrazol-1-yl]-16-fluoro-12,12-dimethyl-2λ^6-thia-3,9,11,18,23-pentaazatetracyclo[17.3.1.111,14.05,10]tetracosa-1(22),5,7,9,19(23),20-hexaene-2,2,4-trione], the EC50 is less than 1000 nM and the “Max. Activity” value is listed as “+ (+ is <30%)”.
`CC1(C)C[C@H]2C[C@@H](F)CNc3cccc(n3)S(=O)(=O)NC(=O)c3ccc(-n4ccc(OCCC5C6(CC6)C56CC6)n4)nc3N1C2` (single isomer, unassigned) [Compound 309, 8-[3-(2-{Dispiro[2.0.2.1]heptan-7-yl}ethoxy)-1H-pyrazol-1-yl]-16-fluoro-12,12-dimethyl-2λ^6-thia-3,9,11,18,23-pentaazatetracyclo[17.3.1.111,14.05,10]tetracosa-1(22),5,7,9,19(23),20-hexaene-2,2,4-trione]: the EC50 is less than 1000 nM and the “Max. Activity” value is reported as “+++ (+++ is >60%)”.
The matching figures for `CC1(C)C[C@H]2CCCn3ccc(n3)S(=O)(=O)NC(=O)c3ccc(N4CCC(OCCC5(C(F)(F)F)CC5)C4=O)nc3N1C2` (stereo in doubt) [Compound 183, 20,20-Dimethyl-4-(2-oxo-3-{2-[1-(trifluoromethyl)cyclopropyl]ethoxy}pyrrolidin-1-yl)-10λ^6-thia-1,3,9,14,22-pentaazatetracyclo[16.2.1.111,14.02,7]docosa-2,4,6,11(22),12-pentaene-8,10,10-trione]: less than 1000 nM and “++ (++ is 30-60%)”.
Turning to `CC(C)(C)CCC1CCN(c2ccc3c(n2)N2C[C@H](CCCn4ccc(n4)S(=O)(=O)NC3=O)CC2(C)C)C1=O` (stereo in doubt) [Compound 184, 4-[3-(3,3-dimethylbutyl)-2-oxopyrrolidin-1-yl]-20,20-dimethyl-10λ^6-thia-1,3,9,14,22-pentaazatetracyclo[16.2.1.111,14.02,7]docosa-2,4,6,11(22),12-pentaene-8,10,10-trione], the EC50 is 1000 to 3000 nM and the “Max. Activity” value is recorded as “+ (+ is <30%)”.
In the case of `CN1CCC[C@H]2CCC(C)(C)N2c2nc(-n3ccc(OCCC4(C(F)(F)F)CC4)n3)ccc2C(=O)NS(=O)(=O)c2cccc1n2` [Compound 10, (15S)-12,12,19-trimethyl-8-(3-{2-[1-(trifluoromethyl)cyclopropyl]ethoxy}-1H-pyrazol-1-yl)-2λ^6-thia-3,9,11,19,24-pentaazatetracyclo[18.3.1.05,10.011,15]tetracosa-1(24),5(10),6,8,20,22-hexaene-2,2,4-trione], the EC50 was more than 3000 nM and the “Max. Activity” value is “+ (+ is <30%)”.
In the case of `CN1CCC[C@@H]2CCC(C)(C)N2c2nc(-n3ccc(OCCC4(C(F)(F)F)CC4)n3)ccc2C(=O)NS(=O)(=O)c2cccc1n2` [Compound 11, (15R)-12,12,19-trimethyl-8-(3-{2-[1-(trifluoromethyl)cyclopropyl]ethoxy}-1H-pyrazol-1-yl)-2λ^6-thia-3,9,11,19,24-pentaazatetracyclo[18.3.1.05,10.011,15]tetracosa-1(24),5(10),6,8,20,22-hexaene-2,2,4-trione], the EC50 is less than 1000 nM and the “Max. Activity” value is recorded as “+++ (+++ is >60%)”.
For the compound `CC1(C)C[C@H]2CCCNc3cccc(n3)S(=O)(=O)NC(=O)c3ccc(-n4ccc(OCCC5(C(F)(F)F)CC5)n4)nc3N1C2` [Compound 13, (14R)-12,12-dimethyl-8-(3-{2-[1-(trifluoromethyl)cyclopropyl]ethoxy}-1H-pyrazol-1-yl)-2λ^6-thia-3,9,11,18,23-pentaazatetracyclo[17.3.1.111,14.05,10]tetracosa-1(23),5,7,9,19,21-hexaene-2,2,4-trione], the EC50 is 1000 to 3000 nM and the “Max. Activity” value is on record as “+ (+ is <30%)”.
For the compound `CC1(C)C[C@@H]2CCCNc3cccc(n3)S(=O)(=O)NC(=O)c3ccc(-n4ccc(OCCC5(C(F)(F)F)CC5)n4)nc3N1C2` [Compound 14, (14S)-12,12-dimethyl-8-(3-{2-[1-(trifluoromethyl)cyclopropyl]ethoxy}-1H-pyrazol-1-yl)-2λ^6-thia-3,9,11,18,23-pentaazatetracyclo[17.3.1.111,14.05,10]tetracosa-1(23),5,7,9,19,21-hexaene-2,2,4-trione], the EC50 is less than 1000 nM and the “Max. Activity” value is given as “+++ (+++ is >60%)”.
`CC1(C)CC[C@@H]2CCCNc3cccc(n3)S(=O)(=O)NC(=O)c3ccc(-n4ccc(OCCC5(C(F)(F)F)CC5)n4)nc3N21` [Compound 33, (15S)-12,12-Dimethyl-8-(3-{2-[1-(trifluoromethyl)cyclopropyl]ethoxy}-1H-pyrazol-1-yl)-2λ^6-thia-3,9,11,19,24-pentaazatetracyclo[18.3.1.05,10.011,15]tetracosa-1(23),5,7,9,20(24),21-hexaene-2,2,4-trione]: the EC50 is more than 3000 nM and the “Max. Activity” value was “+ (+ is <30%)”.
The corresponding values for `CC1(C)CC[C@H]2CCCNc3cccc(n3)S(=O)(=O)NC(=O)c3ccc(-n4ccc(OCCC5(C(F)(F)F)CC5)n4)nc3N21` [Compound 34, (15R)-12,12-dimethyl-8-(3-{2-[1-(trifluoromethyl)cyclopropyl]ethoxy}-1H-pyrazol-1-yl)-2λ^6-thia-3,9,11,19,24-pentaazatetracyclo[18.3.1.05,10.011,15]tetracosa-1(23),5,7,9,20(24),21-hexaene-2,2,4-trione] are less than 1000 nM and “+++ (+++ is >60%)”.
As for `CC1CCC2CN(c3nc(-n4ccc(OCCC5(C(F)(F)F)CC5)n4)ccc3C(=O)NS(=O)(=O)c3cccc(n3)N1)C(C)(C)C2` (stereo not shown) [Compound 35, 12,12,17-trimethyl-8-(3-{2-[1-(trifluoromethyl)cyclopropyl]ethoxy}-1H-pyrazol-1-yl)-2λ^6-thia-3,9,11,18,23-pentaazatetracyclo[17.3.1.111,14.05,10]tetracosa-1(23),5(10),6,8,19,21-hexaene-2,2,4-trione], the EC50 is less than 1000 nM and the “Max. Activity” value is “+++ (+++ is >60%)”.
For the compound `CC1CCC2CN(c3nc(-n4ccc(OCCC5(C(F)(F)F)CC5)n4)ccc3C(=O)NS(=O)(=O)c3cccc(n3)N1)C(C)(C)C2` (stereo not shown) [Compound 36, 12,12,17-trimethyl-8-(3-{2-[1-(trifluoromethyl)cyclopropyl]ethoxy}-1H-pyrazol-1-yl)-2λ^6-thia-3,9,11,18,23-pentaazatetracyclo[17.3.1.111,14.05,10]tetracosa-1(23),5(10),6,8,19,21-hexaene-2,2,4-trione], the EC50 was less than 1000 nM and the “Max. Activity” value is “+++ (+++ is >60%)”.
